{
  "source": "ChEMBL document CHEMBL5096193",
  "about": "“Potential pharmacological strategies targeting the Niemann-Pick C1 receptor and Ebola virus glycoprotein interaction” (Eur J Med Chem, 2021)",
  "key": {"[1]": {"tested_on": "Ebolavirus", "assay": "Antiviral activity against HIV based pseudotyped virus expressing Ebola-GP infected in human HeLa cells assessed as reduction in viral infection preincubated for 1 hrs followed by viral infection and measured after 48hrs by Steady-Glo luciferase assay", "format": "functional, organism-based", "details": "Orthoebolavirus"}, "[2]": {"tested_on": "Ebolavirus", "assay": "Antiviral activity against VSV based pseudotyped virus expressing Ebola-GP infected in […] cells assessed as reduction in viral infection incubated for 24 hrs by linear regression analysis", "format": "functional, organism-based", "details": "Orthoebolavirus"}, "[3]": {"tested_on": "Ebolavirus", "assay": "Antiviral activity against Ebola virus infected in […] cells assessed as reduction in viral infection incubated for 10 days by crystal violet staining based method", "format": "functional, organism-based", "details": "Orthoebolavirus, 240 h"}, "[4]": {"tested_on": "Ebolavirus", "assay": "Antiviral activity against Ebola virus infected in African green monkey Vero E6 cells assessed as reduction in viral titer infected for 1 hr followed by compound addition and measured after 5 days by immunofocus assay", "format": "functional, organism-based", "details": "Orthoebolavirus, Vero C1008"}, "[5]": {"tested_on": "Ebolavirus", "assay": "Antiviral activity against Ebola virus", "format": "functional, organism-based", "details": "Orthoebolavirus"}, "[6]": {"tested_on": "Ebolavirus", "assay": "Antiviral activity against HIV based pseudotyped virus expressing Ebola-GP infected in human A549 cells assessed as inhibition of viral infection preincubated upto 12 hrs followed by viral infection and measured after 48 hrs", "format": "functional", "details": "Orthoebolavirus, time 60 hrs"}, "[7]": {"tested_on": "Zaire ebolavirus", "assay": "Antiviral activity against Zaire ebolavirus infected in african green monkey assessed as reduction in viral infection preincubated for 1 hr followed by viral infection 1 hr and measured after 8 days by crystal violet staining based plaque assay", "format": "functional, organism-based, Vero E6", "details": "Vero C1008"}, "[8]": {"tested_on": "Ebolavirus", "assay": "Antiviral activity against Ebola virus makona", "format": "functional, organism-based", "details": "Orthoebolavirus"}, "[9]": {"assay": "Inhibition of NPC1/VSV pseudotyped Ebola Viral Glycoprotein protein-protein interaction", "parameters": "species or system Ebolavirus"}, "[10]": {"tested_on": "Ebolavirus", "assay": "Antiviral activity against Zaire Ebola virus infected in African green monkey assessed as reduction in viral infection incubated for 48hrs by GFP fluorescence based method", "format": "functional, organism-based, Vero E6", "details": "Orthoebolavirus, Vero C1008, 48 h"}, "[11]": {"tested_on": "Ebolavirus", "assay": "Antiviral activity against HIV based pseudotyped virus expressing Ebola-GP infected in human 293T cells assessed as inhibition of viral infection preincubated for 1 hr followed by viral infection 1 hr and measured after 72 hrs", "format": "functional", "details": "Orthoebolavirus, 293TA; time 74 hrs"}},
  "data": [
    {"smiles": "O=C(CN1CCCC1)NNc1ccccc1Sc1cc(Cl)ccc1[N+](=O)[O-]", "values": [
      {"measurement": "IC50", "setting": "[1]", "value": 2040, "unit": "nM"}
    ]},
    {"smiles": "C[C@]12CC3CC(C(=O)N[C@H]4CC[C@H](N)CC4)(C1)C[C@@](c1ccccc1)(C3)C2", "values": [
      {"measurement": "EC50", "setting": "[2]", "value": 240, "unit": "nM"},
      {"measurement": "EC50", "setting": "[3]", "value": 240, "unit": "nM"}
    ]},
    {"smiles": "O=C(CNCCC1CCN(Cc2ccccc2)CC1)Nn1c2ccccc2c2ccccc21", "values": [
      {"measurement": "IC50", "setting": "[1]", "value": 370, "unit": "nM"}
    ]},
    {"smiles": "CCN(CC)CC(=O)NNc1ccccc1Sc1cc(Cl)ccc1[N+](=O)[O-]", "values": [
      {"measurement": "IC50", "setting": "[1]", "value": 4690, "unit": "nM"}
    ]},
    {"smiles": "NC(=O)c1nc(F)cnc1O", "note": "[FAVIPIRAVIR]", "values": [
      {"measurement": "IC50", "setting": "[4]", "value": 67, "unit": "µM"}
    ]},
    {"smiles": "CN(C)CCOc1ccc(/C(=C(/CCCl)c2ccccc2)c2ccccc2)cc1", "note": "[TOREMIFENE]", "values": [
      {"measurement": "IC50", "setting": "[5]", "value": 162, "unit": "nM"}
    ]},
    {"smiles": "CCOc1ccc(NC(=O)CSc2nnc(COc3cccc(N(C)C)c3)n2-c2ccccc2)cc1", "values": [
      {"measurement": "IC90", "setting": "[6]", "value": 25.7, "unit": "µM"},
      {"measurement": "IC50", "setting": "[7]", "value": 10, "unit": "µM"}
    ]},
    {"smiles": "COC(=O)c1ccc(COc2ccccc2CN2CCN(C(=O)CNC(=O)CC34CC5CC(CC(C5)C3)C4)CC2)cc1", "values": [
      {"measurement": "EC50", "setting": "[8]", "value": 160, "unit": "nM"},
      {"measurement": "IC50", "setting": "[9]", "value": 130, "unit": "nM"}
    ]},
    {"smiles": "FC(C1=Nc2ccccc2N=C(c2ccccc2)C1)C(F)(F)F", "note": "(configuration not stated)", "values": [
      {"measurement": "IC50", "setting": "[10]", "value": 10, "unit": "µM"},
      {"measurement": "IC90", "setting": "[11]", "value": 12.1, "unit": "µM"}
    ]},
    {"smiles": "COc1ccc(S(=O)(=O)N(CC(=O)Nc2ccccc2-c2ccccc2)c2ccc(C)cc2)cc1", "values": [
      {"measurement": "IC90", "setting": "[6]", "value": 8.6, "unit": "µM"},
      {"measurement": "IC50", "setting": "[7]", "value": 8.07, "unit": "µM"}
    ]},
    {"smiles": "CCC(CC)COC(=O)[C@H](C)N[P@](=O)(OC[C@H]1O[C@@](C#N)(c2ccc3c(N)ncnn23)[C@H](O)[C@@H]1O)Oc1ccccc1", "note": "[REMDESIVIR]", "values": [
      {"measurement": "IC50", "setting": "[8]", "value": 86, "unit": "µM"}
    ]},
    {"smiles": "O=C(CC12CC3CC(CC(C3)C1)C2)NCC(=O)N1CCN(Cc2ccccc2)CC1", "values": [
      {"measurement": "IC50", "setting": "[9]", "value": 1600, "unit": "nM"}
    ]}
  ]
}
